Here are results for one compound from article PMC6837341, “Evolutionarily conserved susceptibility of the mitochondrial respiratory chain to SDHI pesticides and its consequence on the impact of SDHIs on human cultured cells” (PLoS ONE, 2019).

The target in this assay is succinate cytochrome c reductase (SDH+CIII) (Homo sapiens, UniProt O14521+P21912+Q99643). The experiment in a line: Malonate-sensitive SCCR activity in fibroblasts grown in the presence of bixafen. Format: cell-based. The following applies: cells grown in glucose medium with 20 μM bixafen, measured after repeated washing. As to the method:
To test SDHIs on growing skin fibroblasts, cells trypsinized from a confluent 75-cm^2 flask culture were seeded in 4×75-cm^2 flasks (20–25% confluency) containing GlucoMax medium (S1 Table). After allowing the culture to stand for one night, the medium was changed to the desired conditions, i.e., GlucoMax medium or MitoMax medium (S1 Table), supplemented with the chosen amount of SDHI (control conditions compensated for DMSO used to solubilize SDHI; 14 mM max). The number of cells was estimated from random images using the ImageJ processing program for 15–20 days without changing the medium (one unique exposure to SDHI).
RC enzyme activities were spectrophotometrically measured using a pseudo-double-wavelength spectrophotometer (Cary 60, Agilent). […] With this aim, we measured the malonate-sensitive succinate cytochrome c reductase (SDH+CIII), glycerol-3-phosphate cytochrome c reductase (G3PDH+CIII) and antimycin-sensitive quinol cytochrome c reductase (CIII) as previously described.
Given the substantial effect of SDHIs on the activity of human SDH, we next assessed the effects of these compounds on the viability of human cells in culture (primary skin fibroblasts) (Figs 3, 4 and 5). […]

Chain of succinate cytochrome c reductase (SDH+CIII) (P21912 29-280): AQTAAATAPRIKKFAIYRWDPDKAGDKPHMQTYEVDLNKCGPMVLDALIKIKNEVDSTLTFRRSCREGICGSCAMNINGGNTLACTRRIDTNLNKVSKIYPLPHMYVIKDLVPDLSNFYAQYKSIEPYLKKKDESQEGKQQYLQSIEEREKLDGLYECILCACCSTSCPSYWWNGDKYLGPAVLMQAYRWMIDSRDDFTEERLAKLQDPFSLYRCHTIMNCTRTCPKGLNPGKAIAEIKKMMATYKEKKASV
Chain of succinate cytochrome c reductase (SDH+CIII) (Q99643 30-169): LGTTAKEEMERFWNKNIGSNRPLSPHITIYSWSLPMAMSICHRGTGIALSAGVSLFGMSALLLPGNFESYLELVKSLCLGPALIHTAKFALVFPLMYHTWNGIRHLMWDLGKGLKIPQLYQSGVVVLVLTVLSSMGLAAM
Chain of succinate cytochrome c reductase (SDH+CIII) (O14521 57-159): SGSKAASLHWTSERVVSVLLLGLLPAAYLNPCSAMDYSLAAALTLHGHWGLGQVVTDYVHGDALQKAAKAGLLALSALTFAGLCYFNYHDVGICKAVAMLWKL
Chain of succinate cytochrome c reductase (SDH+CIII) (P31040 43-664 partner): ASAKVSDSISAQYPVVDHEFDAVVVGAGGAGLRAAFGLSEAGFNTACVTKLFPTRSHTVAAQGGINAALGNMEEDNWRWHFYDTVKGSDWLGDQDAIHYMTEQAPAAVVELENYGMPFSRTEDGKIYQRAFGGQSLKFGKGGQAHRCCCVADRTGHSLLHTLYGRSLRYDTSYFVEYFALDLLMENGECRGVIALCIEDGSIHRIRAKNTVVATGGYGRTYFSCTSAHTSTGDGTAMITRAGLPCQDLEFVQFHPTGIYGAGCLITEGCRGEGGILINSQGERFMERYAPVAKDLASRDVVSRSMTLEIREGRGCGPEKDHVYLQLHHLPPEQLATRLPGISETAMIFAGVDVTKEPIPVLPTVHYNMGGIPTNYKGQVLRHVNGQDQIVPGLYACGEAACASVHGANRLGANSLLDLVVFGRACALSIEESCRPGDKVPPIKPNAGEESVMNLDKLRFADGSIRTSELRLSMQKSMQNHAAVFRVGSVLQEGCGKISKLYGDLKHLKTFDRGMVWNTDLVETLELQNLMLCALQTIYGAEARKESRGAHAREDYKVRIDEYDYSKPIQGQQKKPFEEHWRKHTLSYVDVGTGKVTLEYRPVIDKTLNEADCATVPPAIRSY

Consider `Cn1cc(C(=O)Nc2ccc(F)cc2-c2ccc(Cl)c(Cl)c2)c(C(F)F)n1` [Bixafen, bixafen], for which the “Inhibition of malonate-sensitive SCCR activity in cells” value amounted to 80%.
